Results taken from patent US10611741B2, “Substituted benzoxazine and related compounds” (THE J. DAVID GLADSTONE INSTITUTES, A TESTAMENTARY TRUST …, priority 2014, dated 2020).

Tests used:
Rat neurons = assay: Neuron autophagy assay (flux LC3 assay, conversion of photoconvertible reporter); format: cell-based; conditions: tested at 5, 10, 50, 200, 500, 1000 nM, overnight treatment, read-out: concentration at which active (neuronal autophagy induction)
Procedure: The induction of neuronal autophagy herein was measured by the conversion of photoconvertible reporter in a flux LC3 assay, as described in Tsvetkov et al., Nature Chemical Biology, 9:586-592 (2013), which is incorporated herein by reference.
mApple, kindly provided by Kurt Thorn of the Nikon microscopy core at UCSFR, was cloned into the pGW1 vector. pGW1-GFP and pGW1-Htt^exl-Q97-GFP were transfected according to normal protocols.
Cell cultures included striata, cortices, and hippocampi from rat embryos or newborn (postnatal day 0) mice were dissected, dissociated, and plated on 96-well tissue culture plates coated with poly-D-lysine and laminin. Cells were cultured for 4 days in neurobasal medium with L-glutamine and B-27 before use.
Rat neurons were transfected with plasmids using lipofectamine, treated overnight with vehicle (DMSO) or 5, 10, 50, 200, 500, and 1000 nM of exemplifying compounds and imaged everyday, once a day, for 7 days. […] Kolmogrov-Smirnov statistics test was used to calculate P values.

[1] = test system: primary neurons transfected with exon 1 of mHtt protein containing 97 poly-glutamines; assay: Neuronal death assay (primary rodent neuron cellular model of HD, survival by robotic microscopy); format: cell-based; conditions: for protecting neurons from mHtt toxicity: in words
Procedure: The compounds were tested in a primary rodent neuron cellular model of HD. In this disease model, neurons from the striatum, the site of severe pathology in HD, are transfected with full-length or N-terminal fragments of wild-type Htt or mHtt. The model recapitulates cellular and molecular features seen in HD, including mHtt-dependent neurodegeneration. To use the model in drug discovery, striatal neurons are co-transfected with fluorescently tagged mHtt and marker proteins and examined longitudinally using an automated fluorescent microscopy system (U.S. Pat. No. 7,139,415, incorporated by reference in its entirety). Neurons that express mHtt are periodically imaged, and the loss of fluorescence of the marker protein corresponds to cell death. Importantly, the automated system monitors how mHtt affects neuronal survival by following single cells longitudinally, distinguishing transfected neurons from non-transfected cells. Neurodegeneration is quantified by the difference in survival time between neuronal cells expressing mHtt and neuronal cells expressing wild-type Htt; drugs that increase neuronal survival in neurons expressing mHtt are neuroprotective. Hazard functions are determined by Cox proportional hazards (CPH) analysis to create hazard ratios that are the estimated instantaneous risk of death of individual cells, independent of population size.
Exemplifying compounds were tested for protecting neurons from mHtt toxicity. For this survival assay, primary neurons were transfected with a construct expressing exon 1 of mHtt protein containing 97 poly-glutamines and a fluorescent reporter to track the neurons. Neurons were imaged for 7 days using automated fluorescent robotic microscopy and analyzed for survival. Fluphenazine (Compound N) at 100 nM was used as positive control. DMSO was used as negative control.

[2] = Table 3, dose 200 nM, mHtt neurons, imaged 7 days
[3] = Table 4, dose 50 nM, mHtt neurons, imaged 7 days
[4] = Table 5, dose 10 nM, mHtt neurons, imaged 7 days

| SMILES | minimal effective concentration (Rat neurons) | protecting neurons from mHtt toxicity [1] | Hazard Ratio [1, 3] | further results |
| --- | --- | --- | --- | --- |
| Cc1ccc2c(c1)N(C(=O)CCN1CCN(C)CC1)CCO2 [A, 1-(6-methyl-2,3-dihydro-4H-benzo[b][1,4]oxazin-4-yl)-3-(4-methylpiperazin-1-yl)propan-1-one] | < 0.05 µM |  |  |  |
| Cc1ccc2c(c1)N(C(=O)CN1CCN(C)CC1)CCO2 [B, 1-(6-methyl-2,3-dihydro-4H-benzo[b][1,4]oxazin-4-yl)-2-(4-methylpiperazin-1-yl)ethan-1-one] | < 0.05 µM |  |  |  |
| Cc1ccc2c(c1)N(CCCN1CCN(C)CC1)CCO2 [C, 6-methyl-4-(3-(4-methylpiperazin-1-yl)propyl)-3,4-dihydro-2H-benzo[b][1,4]oxazine] | < 0.05 µM |  |  |  |
| Cc1ccc2c(c1)N(CCN1CCN(C)CC1)CCO2 [Compound D, 6-methyl-4-(2-(4-methylpiperazin-1-yl)ethyl)-3,4-dihydro-2H-benzo[b][1,4]oxazine] | < 0.05 µM | active at nM concentrations |  | Hazard Ratio ([1]; Table 3, dose 10 nM, mHtt neurons, imaged 7 days): 0.9161 |
| Cc1ccc2c(c1)N(C(=O)CN1CCN(c3ccccc3)CC1)CCO2 [Compound K, 1-(6-methyl-2,3-dihydro-4H-benzo[b][1,4]oxazin-4-yl)-2-(4-phenylpiperazin-1-yl)ethan-1-one] |  | active at nM concentrations |  | Hazard Ratio [1, 2]: 0.9209 |
| OCCN1CCN(CCCN2c3ccccc3Sc3ccc(C(F)(F)F)cc32)CC1 [Compound N, 2-(4-(3-(2-(trifluoromethyl)-10H-phenothiazin-10-yl)propyl)piperazin-1-yl)ethan-1-ol, reference compound] |  |  |  | Hazard Ratio ([1]; Table 3, dose 100 nM, positive control): 0.8553; Hazard Ratio ([1]; Table 4, dose 100 nM, positive control): 0.7018; Hazard Ratio ([1]; Table 5, dose 100 nM, positive control): 0.5273 |
| Cc1ccc2c(c1)N(CC(=O)N1CCN(CCNS(C)(=O)=O)CC1)CCO2 [Compound S, N-[2-[4-[2-(6-methyl-2,3-dihydro-1,4-benzoxazin-4-yl)acetyl]piperazin-1-yl]ethyl]methanesulfonamide] |  | active at nM concentrations | 0.6953 |  |
| Cc1ccc2c(c1)N(CC(=O)N1CCN(C)CC1)CCO2 [E, 2-(6-methyl-2,3-dihydro-4H-benzo[b][1,4]oxazin-4-yl)-1-(4-methylpiperazin-1-yl)ethan-1-one] | < 0.05 µM | active at nM concentrations |  | Hazard Ratio ([1]; Table 3, dose 50 nM, mHtt neurons, imaged 7 days): 0.8952 |
| Cc1ccc2c(c1)N(CCC(=O)N1CCN(C)CC1)CCO2 [F, 3-(6-methyl-2,3-dihydro-4H-benzo[b][1,4]oxazin-4-yl)-1-(4-methylpiperazin-1-yl)propan-1-one] | < 0.05 µM |  |  |  |
| Cc1ccc2c(c1)N(CCN1CCN(C)CC1)C(=O)CO2 [G, 6-methyl-4-(2-(4-methylpiperazin-1-yl)ethyl)-2H-benzo[b][1,4]oxazin-3(4H)-one] | < 0.05 µM |  |  |  |
| Cc1ccc2c(c1)N(CC(=O)N1CCN(C)CC1)C(=O)CO2 [I, 6-methyl-4-(2-(4-methylpiperazin-1-yl)-2-oxoethyl)-2H-benzo[b][1,4]oxazin-3(4H)-one] | < 0.05 µM |  |  |  |
| Cc1ccc2c(c1)N(C(=O)CC1CCN(C)CC1)CCO2 [L, 1-(6-methyl-2,3-dihydro-4H-benzo[b][1,4]oxazin-4-yl)-2-(1-methylpiperidin-4-yl)ethan-1-one] |  | active at nM concentrations |  | Hazard Ratio [1, 2]: 0.9143 |
| Cc1ccc2c(c1)N(C(=O)CN1CCN(C3CCCCC3)CC1)CCO2 [O, 2-(4-cyclohexylpiperazin-1-yl)-1-(6-methyl-2,3-dihydro-1,4-benzoxazin-4-yl)ethanone] |  | active at nM concentrations | 0.5747 |  |
| Cc1ccc2c(c1)N(C(=O)CN1CCN(C(C)C)CC1)CCO2 [P, 1-(6-methyl-2,3-dihydro-1,4-benzoxazin-4-yl)-2-(4-propan-2-ylpiperazin-1-yl)ethanone] |  | active at nM concentrations | 0.7384 | Hazard Ratio [1, 4]: 0.6275 |
| Cc1ccc2c(c1)N(CC(=O)N1CCN(CCO)CC1)CCO2 [Q, 1-[4-(2-hydroxyethyl)piperazin-1-yl]-2-(6-methyl-2,3-dihydro-1,4-benzoxazin-4-yl)ethanone] |  | active at nM concentrations | 0.5709 | Hazard Ratio [1, 4]: 0.558 |
| COCCN1CCN(C(=O)CN2CCOc3ccc(C)cc32)CC1 [R, 1-[4-(2-methoxyethyl)piperazin-1-yl]-2-(6-methyl-2,3-dihydro-1,4-benzoxazin-4-yl)ethanone] |  | active at nM concentrations | 0.7345 | Hazard Ratio [1, 4]: 0.7036 |
